Patent US5283193A, “Process for producing optically active α-substituted organic acid and microorganism and enzyme used therefor” (Asahi Kasei Kogyo K.K., priority 1988, dated 1994)

system: Nitrilase isolated from Acinetobacter sp. AK 226 strain; assay: Substrate specificity of purified nitrilase (hydrolysis of nitriles to organic acid and ammonia); details: not given

| Compound | Relative activity |
| --- | --- |
| N#Cc1cccc([N+](=O)[O-])c1 [m-Nitrobenzonitrile] | 47.6 ×10^2% |
| CC(C)CCC#N [iso-Capronitrile] | 8.12 ×10^2% |
| N#CCCCC#N [Glutaronitrile] | 50.9 ×10^2% |
| N#Cc1ccc(F)cc1 [p-Fluorobenzonitrile] | 83.9 ×10^2% |
| N#Cc1cccc(Cl)c1 [m-Chlorobenzonitrile] | 68.9 ×10^2% |
| CC#N [Acetonitrile] | 45.3 ×10^2% |
| C=CC#N [Acrylonitrile] | 144 ×10^2% |
| CCCC#N [n-Butyronitrile] | 17.4 ×10^2% |
| CC(C#N)c1ccccc1 (stereo not drawn) [α-Phenylpropionitrile] | 0.534 ×10^2% |
| Cc1cccc(C#N)c1 [m-Tolunitrile] | 74.8 ×10^2% |
| N#CCCl [Chloroacetonitrile] | 108 ×10^2% |
| CCCCCC#N [n-Capronitrile] | 5.93 ×10^2% |
| N#Cc1cccc(C#N)c1 [m-Phthalonitrile] | 80.7 ×10^2% |
| Thiopheneacetonitrile | 45.5 ×10^2% |
| Cc1ccccc1C#N [o-Tolunitrile] | 0.743 ×10^2% |
| N#CC(N)c1ccccc1 (stereo not shown) [2-Phenylglycinonitrile] | 0.000 ×10^2% |
| N#CC(Br)CBr (stereo not shown) [2,3-Dibromopropionitrile] | 90.3 ×10^2% |
| N#CCO [Hydroxyacetonitrile] | 11.4 ×10^2% |
| N#Cc1cccnc1 [Nicotinonitrile] | 52.7 ×10^2% |
| N#Cc1ccccc1F [o-Fluorobenzonitrile] | 50.4 ×10^2% |
| C=C(C)C#N [Methacrylonitrile] | 68.4 ×10^2% |

same assay, conditions: racemic substrate

| Compound | Reaction rate with the S isomer compared with the R isomer |
| --- | --- |
| CC(C)Cc1ccc(C(C)C#N)cc1 (stereo not shown) | much higher |
